Results published in ChEMBL document CHEMBL1201862, “PubChem BioAssay data set” (2004).
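In this assay, cells in 96-well plates receive the compound at five concentrations for 48 hours. Endpoints are linearly interpolated between the surrounding concentrations. At the GI50, growth is halved.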 Calls of active or inactive are those of the source. Rule as the data show it: active = GI50 up to about 1.1 µM and inactive = higher.

Key:
Experiment in all cases: NCI anticancer screen, dose series, 48 h
IGROV-1 = system: IGROV-1
SNB-75 = system: SNB-75
KM12 = system: KM12
LOX IMVI = system: LOX IMVI
SF-539 = system: SF-539
U-251 = system: U-251
OVCAR-3 = system: OVCAR-3
TK-10 = system: TK-10
HL-60 = system: HL-60
NCI/ADR-RES = system: NCI/ADR-RES
MCF7 = system: MCF7
A549 = system: A549
MDA-MB-435 = system: MDA-MB-435
OVCAR-8 = system: OVCAR-8
SR = system: SR
HCT-15 = system: HCT-15
CCRF-CEM = system: CCRF-CEM
NCI-H226 = system: NCI-H226
NCI-H23 = system: NCI-H23
Malme-3M = system: Malme-3M

Row | SMILES | GI50 (IGROV-1) | GI50 (SNB-75) | GI50 (KM12) | GI50 (LOX IMVI) | GI50 (SF-539) | GI50 (U-251) | GI50 (OVCAR-3) | GI50 (TK-10) | GI50 (HL-60) | GI50 (NCI/ADR-RES) | GI50 (MCF7) | GI50 (A549) | GI50 (MDA-MB-435) | GI50 (OVCAR-8) | GI50 (SR) | GI50 (HCT-15) | GI50 (CCRF-CEM) | GI50 (NCI-H226) | GI50 (NCI-H23) | GI50 (Malme-3M)
1 | Oc1ccc(/C=C/c2cccc(/C=C/c3ccc(O)c(O)c3)n2)cc1O | 6.15 µM (inactive) | 6.01 µM (inactive) | 8.91 µM (inactive) | 5.14 µM (inactive) | 3.02 µM (inactive) | 3.85 µM (inactive) | 4.05 µM (inactive) | 11.4 µM (inactive) | 2.82 µM (inactive) | 5.48 µM (inactive) | 10.2 µM (inactive) | 5.25 µM (inactive) | 10.7 µM (inactive) | 6.81 µM (inactive) | 3.49 µM (inactive) | 22.7 µM | 2.75 µM (inactive) | – | – | –
2 | O=C1C(=C(C(F)(F)Cl)C(F)(F)Cl)C2CCC1C2 (configuration not stated) | 1.89 µM (inactive) | 4.3 µM (inactive) | 3.01 µM (inactive) | 1.33 µM (inactive) | 3.29 µM (inactive) | 5.27 µM (inactive) | 2.45 µM (inactive) | 1.77 µM (inactive) | 0.238 µM (active) | 2.15 µM (inactive) | 2.49 µM (inactive) | 2.2 µM (inactive) | 1.88 µM (inactive) | 1.94 µM (inactive) | 0.0655 µM (active) | 1.98 µM | 0.00986 µM (active) | > 5.38 µM (inactive) | 1.96 µM (inactive) | 1.55 µM (inactive)
3 | COc1ccc(Nc2cc(O)nc(O)n2)cc1 | > 100 µM (inactive) | 84.3 µM (inactive) | > 100 µM (inactive) | > 100 µM (inactive) | > 100 µM (inactive) | > 100 µM (inactive) | > 100 µM (inactive) | > 100 µM (inactive) | > 100 µM (inactive) | > 100 µM (inactive) | > 100 µM (inactive) | > 100 µM (inactive) | > 100 µM (inactive) | > 100 µM (inactive) | > 100 µM (inactive) | > 100 µM | > 100 µM (inactive) | > 100 µM (inactive) | > 100 µM (inactive) | > 100 µM (inactive)
4 | Nc1nc(-c2ccccc2)nc2oc(-c3cccs3)nc12 | > 100 µM (inactive) | > 100 µM (inactive) | > 100 µM (inactive) | > 100 µM (inactive) | > 100 µM (inactive) | > 100 µM (inactive) | > 100 µM (inactive) | > 100 µM (inactive) | > 100 µM (inactive) | > 100 µM (inactive) | > 100 µM (inactive) | > 100 µM (inactive) | > 100 µM (inactive) | > 100 µM (inactive) | > 100 µM (inactive) | > 100 µM | > 100 µM (inactive) | > 100 µM (inactive) | > 100 µM (inactive) | –
5 | O=C1CC(c2ccccc2Cl)C2(C(=O)NC(=O)NC2=O)C(c2ccccc2Cl)C1 (configuration not stated) | 0.104 µM (active) | > 100 µM (inactive) | > 100 µM (inactive) | 51.8 µM (inactive) | 76.2 µM (inactive) | > 100 µM (inactive) | 32.6 µM (inactive) | > 100 µM (inactive) | 80.4 µM (inactive) | > 100 µM (inactive) | 54.1 µM (inactive) | 85.3 µM (inactive) | 52.6 µM (inactive) | > 100 µM (inactive) | 58.1 µM (inactive) | > 100 µM | > 100 µM (inactive) | 65.8 µM (inactive) | > 100 µM (inactive) | 5.05 µM (inactive)
6 | CC1CC[C@@]2(OC1)OC1C[C@H]3[C@@H]4CC=C5CC(OC6OC(CO)C(OC7OC(CO)C(O)C(OC8OCC(O)C(O)C8O)C7OC7OC(CO)C(OC8OC(C)C(OC9OC(C)C(O)C(O)C9O)C(O)C8O)C(O)C7O)C(O)C6O)CCC5(C)[C@H]4CCC3(C)C1[C@@H]2C (some centres not stated) | 8.49 µM (inactive) | – | 9.33 µM (inactive) | 8.99 µM (inactive) | 6.08 µM (inactive) | 9.04 µM (inactive) | 10.8 µM (inactive) | 8.59 µM (inactive) | 8.99 µM (inactive) | 9.48 µM (inactive) | 14.1 µM (inactive) | 7.48 µM (inactive) | 9.06 µM (inactive) | 9.95 µM (inactive) | 0.495 µM (active) | 9.64 µM | 10.4 µM (inactive) | 9.08 µM (inactive) | 8.97 µM (inactive) | 10.6 µM (inactive)
7 | CCCCN(C)C(=O)C1=C(C)NC(C)=C(C(=O)N(C)CCCC)C1 | > 100 µM (inactive) | 50.7 µM (inactive) | > 100 µM (inactive) | > 100 µM (inactive) | > 100 µM (inactive) | > 100 µM (inactive) | > 100 µM (inactive) | > 100 µM (inactive) | 54.1 µM (inactive) | > 100 µM (inactive) | > 100 µM (inactive) | > 100 µM (inactive) | > 100 µM (inactive) | > 100 µM (inactive) | 83.9 µM (inactive) | > 100 µM | 66.2 µM (inactive) | > 100 µM (inactive) | > 100 µM (inactive) | –
8 | Oc1ccc(/C=C/c2cc(O)cc(O)c2)cc1 [RESVERATROL] | – | 95.1 µM (inactive) | 31.9 µM (inactive) | – | 29.6 µM (inactive) | > 100 µM (inactive) | > 100 µM (inactive) | > 100 µM (inactive) | 20.4 µM (inactive) | 19.6 µM (inactive) | 67 µM (inactive) | 51.6 µM (inactive) | 70.1 µM (inactive) | 48.8 µM (inactive) | 53.1 µM (inactive) | > 100 µM | – | 39.9 µM (inactive) | 46 µM (inactive) | –
9 | O=P(Oc1ccc(Cl)cc1)(Oc1ccc(Cl)cc1)N1CC1 | – | > 10 µM (inactive) | > 10 µM (inactive) | > 10 µM (inactive) | > 10 µM (inactive) | > 10 µM (inactive) | > 10 µM (inactive) | > 10 µM (inactive) | > 10 µM (inactive) | > 10 µM (inactive) | > 10 µM (inactive) | > 10 µM (inactive) | > 10 µM (inactive) | > 10 µM (inactive) | > 10 µM (inactive) | > 10 µM | 0.174 µM (active) | > 10 µM (inactive) | > 10 µM (inactive) | > 10 µM (inactive)
10 | S=c1sscc1N1CCSc2ssc(=S)c21 | 21.1 µM (inactive) | 14.5 µM (inactive) | > 100 µM (inactive) | 28.4 µM (inactive) | 42.3 µM (inactive) | 13.8 µM (inactive) | – | 24.8 µM (inactive) | > 100 µM (inactive) | 28.4 µM (inactive) | 32.7 µM (inactive) | 48.6 µM (inactive) | > 100 µM (inactive) | 4.66 µM (inactive) | > 100 µM (inactive) | 47.5 µM | > 100 µM (inactive) | 67.8 µM (inactive) | 19.9 µM (inactive) | > 100 µM (inactive)
11 | C=CCn1c(=O)c(Br)nn(CCOCP(=O)(OCC)OCC)c1=O | > 100 µM (inactive) | > 100 µM (inactive) | > 100 µM (inactive) | > 100 µM (inactive) | > 100 µM (inactive) | > 100 µM (inactive) | > 100 µM (inactive) | – | > 100 µM (inactive) | > 100 µM (inactive) | > 100 µM (inactive) | > 100 µM (inactive) | > 100 µM (inactive) | > 100 µM (inactive) | > 100 µM (inactive) | > 100 µM | > 100 µM (inactive) | > 100 µM (inactive) | > 100 µM (inactive) | > 100 µM (inactive)
12 | N#Cc1ccc(C2NN=CC23C(=O)c2ccccc2OC3c2ccccc2)cc1 (configuration not stated) | 50.6 µM (inactive) | – | 36.4 µM (inactive) | 30.9 µM (inactive) | 42.2 µM (inactive) | 23.8 µM (inactive) | 30.4 µM (inactive) | 25.4 µM (inactive) | 59.7 µM (inactive) | 31.5 µM (inactive) | 34.2 µM (inactive) | 29.4 µM (inactive) | 30.8 µM (inactive) | 42.4 µM (inactive) | 24 µM (inactive) | 25.4 µM | 32.6 µM (inactive) | 39.4 µM (inactive) | 30.1 µM (inactive) | 53.7 µM (inactive)
13 | CCCCCCCCCCCCOc1ccc(/C=C/C2=[N+](CCCl)CCO2)cc1 | 25.4 µM (inactive) | 45.5 µM (inactive) | 38 µM (inactive) | 17.7 µM (inactive) | > 100 µM (inactive) | 24.3 µM (inactive) | 19.4 µM (inactive) | 47.6 µM (inactive) | 12.8 µM (inactive) | 46.1 µM (inactive) | 54.2 µM (inactive) | 65.2 µM (inactive) | 94.2 µM (inactive) | 56.4 µM (inactive) | 19.6 µM (inactive) | 31.7 µM | 22.8 µM (inactive) | > 100 µM (inactive) | – | > 100 µM (inactive)
14 | O=c1[nH]c(=O)n(C2OC(CO)C(O)C2O)cc1OCCCc1ccccc1 (configuration not stated) | > 100 µM (inactive) | – | > 100 µM (inactive) | > 100 µM (inactive) | > 100 µM (inactive) | – | > 100 µM (inactive) | > 100 µM (inactive) | > 100 µM (inactive) | > 100 µM (inactive) | > 100 µM (inactive) | > 100 µM (inactive) | > 100 µM (inactive) | > 100 µM (inactive) | > 100 µM (inactive) | > 100 µM | > 100 µM (inactive) | > 100 µM (inactive) | > 100 µM (inactive) | > 100 µM (inactive)
15 | CC1(C)CCCC(C)(C2CCC3(C)C2C(O)CC2C4(C)CCC(O)C(C)(C)C4CCC23C)O1 (configuration not stated) | > 100 µM (inactive) | 29.4 µM (inactive) | > 100 µM (inactive) | > 100 µM (inactive) | 42.9 µM (inactive) | > 100 µM (inactive) | – | 86.5 µM (inactive) | 26.4 µM (inactive) | 55 µM (inactive) | 61.1 µM (inactive) | > 100 µM (inactive) | > 100 µM (inactive) | 42.4 µM (inactive) | > 100 µM (inactive) | > 100 µM | > 100 µM (inactive) | > 100 µM (inactive) | > 100 µM (inactive) | 98.6 µM (inactive)
